Converted amounts (≈) assume the structure as drawn.
Each compound was assayed on Mycobacterium tuberculosis (assay: Antitubercular activity against Mycobacterium tuberculosis H37Rv ATCC 27294 by BACTEC 460 radiorespirometric assay).
Format: functional

Compound | MIC [µg/mL]
CC(C)[C@@H]1CC[C@]2(C)[C@H](CC=C3[C@@H]4CC(C)(C)CC[C@]4(C(=O)O)CC[C@]32C)[C@@]1(C)CCC(=O)O | 128 (≈ 271 µM)
CC1(C)CC[C@]2(C(=O)O)CC[C@]3(C)C(=CC[C@@H]4[C@@]5(C)CCC(=O)C(C)(C)[C@@H]5CC[C@]43C)[C@@H]2C1 [OLEANONIC ACID] | 16 (≈ 35.2 µM)
CC1(C)CC[C@]2(C(=O)O)CC[C@]3(C)C(=CC[C@@H]4[C@@]5(C)CC[C@H](O)C(C)(C)[C@@H]5CC[C@]43C)[C@@H]2C1 [OLEANOLIC_ACID] | 50 (≈ 109 µM)
C=C(C)[C@@H]1CC[C@]2(C(=O)O)CC[C@]3(C)[C@H](CC[C@@H]4[C@@]5(C)CC[C@@H](O)C(C)(C)[C@@H]5CC[C@]43C)[C@@H]12 [EPIBETULINIC ACID] | 50 (≈ 109 µM)
CC1(C)CC[C@@]23CC[C@]4(C)[C@@](C=C[C@@H]5[C@@]6(C)CC[C@@H](O)C(C)(C)[C@@H]6CC[C@]54C)(OC2=O)[C@@H]3C1 | 64 (≈ 141 µM)
CC1(C)CC[C@]2(C(=O)O)CC[C@]3(C)C(=CC[C@@H]4[C@@]5(C)CC[C@@H](O)C(C)(C)[C@@H]5CC[C@]43C)[C@@H]2C1 | 16 (≈ 35 µM)
CO[C@H]1/C=C/O[C@@]2(C)Oc3c(C)c(O)c4c(O)c(c(/C=N/N5CCN(C)CC5)c(O)c4c3C2=O)NC(=O)/C(C)=C\C=C\[C@H](C)[C@H](O)[C@@H](C)[C@@H](O)[C@@H](C)[C@H](OC(C)=O)[C@@H]1C [RIFAMPIN] | 0.16 (≈ 0.194 µM)
CC1(C)CC[C@]2(C(=O)O)CC[C@]3(C)C(=C2C1)C=C[C@@H]1[C@@]2(C)CC[C@@H](O)C(C)(C)[C@@H]2CC[C@]13C | 64 (≈ 141 µM)

Reference: ChEMBL document CHEMBL1155637, “Oleanane triterpenes from Junellia tridens” (2000)
